Assay results taken from ChEMBL document CHEMBL1127890, “Syntheses of new bacteriochlorins and their antitumor activity” (1994).

Legend:
Assay type in all cases: functional
Conditions in all cases: route intravenous
[1] = test system: Mus musculus; test: In vivo tumor response 3 hour after post i.v. injection at a dose of 5 mg/kg in DBA/2 mice having SMT/F tumor after 1-2 days
[2] = test system: Mus musculus; test: In vivo tumor response 3 hour after post i.v. injection at a dose of 5 mg/kg in DBA/2 mice having SMT/F tumor after 21 days
[3] = test system: Mus musculus; test: In vivo tumor response 3 hour after post i.v. injection at a dose of 5 mg/kg in DBA/2 mice having SMT/F tumor after 30 days
[4] = test system: Mus musculus; test: In vivo tumor response 3 hour after post i.v. injection at a dose of 5 mg/kg in DBA/2 mice having SMT/F tumor after 7 days

| SMILES | Tumor response [1] [%] | Tumor response [2] [%] | Tumor response [3] [%] | Tumor response [4] [%] |
| --- | --- | --- | --- | --- |
| CCOC(=O)C(N)CCCCN1C(=O)C2=C(C)c3cc4[nH]c(cc5[nH]c(cc6nc(c(c2n3)C1=O)[C@@H](CCC(=O)OC)[C@@H]6C)c(C)c5C=O)C(C)(O)C4(O)CC (some centres undefined) | 100 | 20 | 20 | 100 |
| CCC1(O)c2cc3nc4c(c5nc(cc6[nH]c(cc([nH]2)C1(C)O)c(C=O)c6C)[C@@H](C)[C@@H]5CCC(=O)NC(CC(=O)OC(C)(C)C)C(=O)OC(C)(C)C)C(=O)OC(=O)C4=C3C (some centres undefined) | 100 | 80 | 80 | 100 |
| CCC1(O)c2cc3nc4c(c5nc(cc6[nH]c(cc([nH]2)C1(C)O)c(C=O)c6C)[C@@H](C)[C@@H]5CCC(=O)OC)C(=O)OC(=O)C4=C3C (some centres undefined) | 0 |  |  |  |
